Activity calls are given as the source filed them. No cut-off for these calls is given here.
Tests used:
[1] = biological target: Protein cereblon/Apoptosis regulator Bcl-2 (Homo sapiens) (UniProt P10415+Q96SW2); test: Protac activity at CRBN/BCL2 in human MOLT-4 cells assessed as induction of BCL2 degradation at 50 nM measured after 16 hrs by immunoblotting analysis; type: cell-based
[2] = biological target: Protein cereblon/Bcl-2-like protein 1 (Homo sapiens, UniProt Q07817+Q96SW2); test: Protac activity at CRBN/BCL-XL in human MOLT-4 cells assessed as induction of BCL-XL degradation by measuring remaining BCL-XL level at 50 nM measured after 16 hrs by immunoblotting analysis relative to control; type: cell-based
[3] = tested on: MOLT-4; test: Antiproliferative activity against human MOLT-4 cells assessed as reduction in cell viability measured after 48 hrs by MTS assay; type: functional, cell-based; conditions: MOLT-4, 48 h
[4] = biological target: von Hippel-Lindau disease tumor suppressor/Apoptosis regulator Bcl-2 (Homo sapiens) (UniProt P10415+P40337); test: Protac activity at VHL/BCL2 in human MOLT-4 cells assessed as induction of BCL2 degradation at 100 nM measured after 16 hrs by immunoblotting analysis; type: cell-based
[5] = biological target: von Hippel-Lindau disease tumor suppressor/Bcl-2-like protein 1 (Homo sapiens, UniProt Q07817+P40337); test: Protac activity at VHL/BCL-XL in human MOLT-4 cells assessed as induction of BCL-XL degradation by measuring remaining BCL-XL level at 100 nM measured after 16 hrs by immunoblotting analysis relative to control; type: cell-based
von Hippel-Lindau disease tumor suppressor/Bcl-2-like protein 1, sequence (P40337 whole entry, looked up): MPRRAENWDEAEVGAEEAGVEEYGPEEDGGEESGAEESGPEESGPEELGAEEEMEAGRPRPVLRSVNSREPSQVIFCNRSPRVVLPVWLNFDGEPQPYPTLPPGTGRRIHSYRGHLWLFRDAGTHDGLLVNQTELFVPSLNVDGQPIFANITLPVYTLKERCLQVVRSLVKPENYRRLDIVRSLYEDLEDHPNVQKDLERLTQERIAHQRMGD
von Hippel-Lindau disease tumor suppressor/Bcl-2-like protein 1, sequence (Q07817 whole entry, looked up): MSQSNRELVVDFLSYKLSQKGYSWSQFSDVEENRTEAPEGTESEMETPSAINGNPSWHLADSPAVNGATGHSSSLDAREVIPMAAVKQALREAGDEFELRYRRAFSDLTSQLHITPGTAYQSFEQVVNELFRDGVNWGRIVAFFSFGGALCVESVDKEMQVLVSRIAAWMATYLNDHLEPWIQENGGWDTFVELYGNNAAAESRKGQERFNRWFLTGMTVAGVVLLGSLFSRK

Protein cereblon/Bcl-2-like protein 1, sequence (Q07817 whole entry, looked up): as above
Protein cereblon/Bcl-2-like protein 1, sequence (Q96SW2 whole entry, looked up): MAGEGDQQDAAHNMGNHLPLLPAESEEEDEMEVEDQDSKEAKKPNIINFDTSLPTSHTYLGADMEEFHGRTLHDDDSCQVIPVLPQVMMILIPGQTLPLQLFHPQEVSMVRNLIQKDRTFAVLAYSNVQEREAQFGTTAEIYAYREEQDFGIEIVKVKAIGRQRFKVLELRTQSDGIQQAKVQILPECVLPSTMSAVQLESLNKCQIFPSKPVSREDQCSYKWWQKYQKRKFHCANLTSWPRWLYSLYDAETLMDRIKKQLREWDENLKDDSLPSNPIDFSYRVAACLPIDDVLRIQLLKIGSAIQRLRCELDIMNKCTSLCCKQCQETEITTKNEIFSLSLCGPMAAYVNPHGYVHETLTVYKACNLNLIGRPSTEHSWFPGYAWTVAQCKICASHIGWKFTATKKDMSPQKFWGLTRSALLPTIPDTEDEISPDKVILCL
Protein cereblon/Apoptosis regulator Bcl-2 (Homo sapiens), sequence (P10415 whole entry, looked up): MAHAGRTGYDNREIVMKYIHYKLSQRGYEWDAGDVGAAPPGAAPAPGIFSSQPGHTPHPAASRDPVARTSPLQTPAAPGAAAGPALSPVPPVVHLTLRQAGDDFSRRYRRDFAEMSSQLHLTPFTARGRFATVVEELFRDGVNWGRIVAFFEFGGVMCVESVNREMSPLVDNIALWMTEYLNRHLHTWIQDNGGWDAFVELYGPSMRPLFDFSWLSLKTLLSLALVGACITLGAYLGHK
Protein cereblon/Apoptosis regulator Bcl-2 (Homo sapiens), sequence (Q96SW2 whole entry, looked up): as the sequence (Q96SW2 whole entry, looked up) above
von Hippel-Lindau disease tumor suppressor/Apoptosis regulator Bcl-2 (Homo sapiens), sequence (P10415 whole entry, looked up): as the sequence (P10415 whole entry, looked up) above
von Hippel-Lindau disease tumor suppressor/Apoptosis regulator Bcl-2 (Homo sapiens), sequence (P40337 whole entry, looked up): as the sequence (P40337 whole entry, looked up) above

Compound	Activity [1]	Activity [2]	IC50 [3]	Activity [4]	Activity [5]
CN(CC[C@H](CSc1ccccc1)Nc1ccc(S(=O)(=O)NC(=O)c2ccc(N3CCN(CC4=C(c5ccc(Cl)cc5)CCC(C)(C)C4)CC3)cc2)cc1S(=O)(=O)C(F)(F)F)C(=O)CCCCCCn1cc(COCCOCCOCCNc2cccc3c2C(=O)N([C@@H]2CCC(=O)NC2=O)C3=O)nn1	inactive	29%	179 nM		
Cc1ncsc1-c1ccc([C@H](C)NC(=O)[C@@H]2C[C@@H](O)CN2C(=O)[C@@H](NC(=O)CCCC(=O)N2CCN(CC[C@H](CSc3ccccc3)Nc3ccc(S(=O)(=O)NC(=O)c4ccc(N5CCN(CC6=C(c7ccc(Cl)cc7)CCC(C)(C)C6)CC5)cc4)cc3S(=O)(=O)C(F)(F)F)CC2)C(C)(C)C)cc1			> 2000 nM	inactive	82%
CC1(C)CCC(c2ccc(Cl)cc2)=C(CN2CCN(c3ccc(C(=O)NS(=O)(=O)c4ccc(N[C@H](CCN5CCN(C(=O)CCCCCCCNc6cccc7c6C(=O)N([C@@H]6CCC(=O)NC6=O)C7=O)CC5)CSc5ccccc5)c(S(=O)(=O)C(F)(F)F)c4)cc3)CC2)C1	inactive	89%	> 2000 nM		
CN(CCOCCOCCNc1cccc2c1C(=O)N([C@@H]1CCC(=O)NC1=O)C2=O)CC[C@H](CSc1ccccc1)Nc1ccc(S(=O)(=O)NC(=O)c2ccc(N3CCN(CC4=C(c5ccc(Cl)cc5)CCC(C)(C)C4)CC3)cc2)cc1S(=O)(=O)C(F)(F)F	inactive	11%	35 nM		
CN(CCCCCNc1cccc2c1C(=O)N([C@@H]1CCC(=O)NC1=O)C2=O)CC[C@H](CSc1ccccc1)Nc1ccc(S(=O)(=O)NC(=O)c2ccc(N3CCN(CC4=C(c5ccc(Cl)cc5)CCC(C)(C)C4)CC3)cc2)cc1S(=O)(=O)C(F)(F)F	inactive	47%	60.9 nM		
CN(CCCCCCCCNc1cccc2c1C(=O)N([C@@H]1CCC(=O)NC1=O)C2=O)CC[C@H](CSc1ccccc1)Nc1ccc(S(=O)(=O)NC(=O)c2ccc(N3CCN(CC4=C(c5ccc(Cl)cc5)CCC(C)(C)C4)CC3)cc2)cc1S(=O)(=O)C(F)(F)F	inactive	94%	> 2000 nM		
CC1(C)CCC(c2ccc(Cl)cc2)=C(CN2CCN(c3ccc(C(=O)NS(=O)(=O)c4ccc(N[C@H](CCN5CCN(C(=O)CCCCNc6cccc7c6C(=O)N([C@@H]6CCC(=O)NC6=O)C7=O)CC5)CSc5ccccc5)c(S(=O)(=O)C(F)(F)F)c4)cc3)CC2)C1	inactive	81%	346 nM		
CN(CC[C@H](CSc1ccccc1)Nc1ccc(S(=O)(=O)NC(=O)c2ccc(N3CCN(CC4=C(c5ccc(Cl)cc5)CCC(C)(C)C4)CC3)cc2)cc1S(=O)(=O)C(F)(F)F)C(=O)CCCCCCn1cc(COCCOCCNc2cccc3c2C(=O)N([C@@H]2CCC(=O)NC2=O)C3=O)nn1	inactive	28%	177 nM		
CC1(C)CCC(c2ccc(Cl)cc2)=C(CN2CCN(c3ccc(C(=O)NS(=O)(=O)c4ccc(N[C@H](CCN5CCN(C(=O)CCCCCCNc6cccc7c6C(=O)N([C@@H]6CCC(=O)NC6=O)C7=O)CC5)CSc5ccccc5)c(S(=O)(=O)C(F)(F)F)c4)cc3)CC2)C1	inactive	101%	> 2000 nM		
CC1(C)CCC(c2ccc(Cl)cc2)=C(CN2CCN(c3ccc(C(=O)NS(=O)(=O)c4ccc(N[C@H](CCN5CCN(C(=S)NCCOCCOCCNc6cccc7c6C(=O)N([C@@H]6CCC(=O)NC6=O)C7=O)CC5)CSc5ccccc5)c(S(=O)(=O)C(F)(F)F)c4)cc3)CC2)C1 (racemic)	inactive	76%	722 nM		
CC1(C)CCC(c2ccc(Cl)cc2)=C(CN2CCN(c3ccc(C(=O)NS(=O)(=O)c4ccc(N[C@H](CCN5CCN(C(=O)CCCNc6cccc7c6C(=O)N([C@@H]6CCC(=O)NC6=O)C7=O)CC5)CSc5ccccc5)c(S(=O)(=O)C(F)(F)F)c4)cc3)CC2)C1	inactive	44%			
CC1(C)CCC(c2ccc(Cl)cc2)=C(CN2CCN(c3ccc(C(=O)NS(=O)(=O)c4ccc(N[C@H](CCN5CCN(CCOCCNc6cccc7c6C(=O)N([C@@H]6CCC(=O)NC6=O)C7=O)CC5)CSc5ccccc5)c(S(=O)(=O)C(F)(F)F)c4)cc3)CC2)C1	inactive	20%	60.5 nM		
CN(CC[C@H](CSc1ccccc1)Nc1ccc(S(=O)(=O)NC(=O)c2ccc(N3CCN(CC4=C(c5ccc(Cl)cc5)CCC(C)(C)C4)CC3)cc2)cc1S(=O)(=O)C(F)(F)F)C(=O)CCCn1cc(COCCOCCOCCNc2cccc3c2C(=O)N([C@@H]2CCC(=O)NC2=O)C3=O)nn1	inactive	67%	769 nM		
CC1(C)CCC(c2ccc(Cl)cc2)=C(CN2CCN(c3ccc(C(=O)NS(=O)(=O)c4ccc(N[C@H](CCN5CCN(CCCCCNc6cccc7c6C(=O)N([C@@H]6CCC(=O)NC6=O)C7=O)CC5)CSc5ccccc5)c(S(=O)(=O)C(F)(F)F)c4)cc3)CC2)C1	inactive	45%	100 nM		
CN(CCOCCOCCOCCOCCNc1cccc2c1C(=O)N([C@@H]1CCC(=O)NC1=O)C2=O)CC[C@H](CSc1ccccc1)Nc1ccc(S(=O)(=O)NC(=O)c2ccc(N3CCN(CC4=C(c5ccc(Cl)cc5)CCC(C)(C)C4)CC3)cc2)cc1S(=O)(=O)C(F)(F)F	inactive	5%	19.3 nM		
CC1(C)CCC(c2ccc(Cl)cc2)=C(CN2CCN(c3ccc(C(=O)NS(=O)(=O)c4ccc(N[C@H](CCN5CCN(CCOCCOCCNc6cccc7c6C(=O)N([C@@H]6CCC(=O)NC6=O)C7=O)CC5)CSc5ccccc5)c(S(=O)(=O)C(F)(F)F)c4)cc3)CC2)C1	inactive	13%	41.4 nM		
CN(CC[C@H](CSc1ccccc1)Nc1ccc(S(=O)(=O)NC(=O)c2ccc(N3CCN(CC4=C(c5ccc(Cl)cc5)CCC(C)(C)C4)CC3)cc2)cc1S(=O)(=O)C(F)(F)F)C(=O)CCCn1cc(COCCOCCNc2cccc3c2C(=O)N([C@@H]2CCC(=O)NC2=O)C3=O)nn1	inactive	66%	770 nM		

Now from value to molecule:

Activity [1]	Activity [2]	IC50 [3]	Activity [4]	Activity [5]	Compound
inactive	11%	126 nM			CC1(C)CCC(c2ccc(Cl)cc2)=C(CN2CCN(c3ccc(C(=O)NS(=O)(=O)c4ccc(N[C@H](CCN5CCN(C(=O)COCCOCCOCCOCCNc6cccc7c6C(=O)N([C@@H]6CCC(=O)NC6=O)C7=O)CC5)CSc5ccccc5)c(S(=O)(=O)C(F)(F)F)c4)cc3)CC2)C1
inactive	20%	161 nM			CC1(C)CCC(c2ccc(Cl)cc2)=C(CN2CCN(c3ccc(C(=O)NS(=O)(=O)c4ccc(N[C@H](CCN5CCN(C(=O)COCCOCCNc6cccc7c6C(=O)N([C@@H]6CCC(=O)NC6=O)C7=O)CC5)CSc5ccccc5)c(S(=O)(=O)C(F)(F)F)c4)cc3)CC2)C1
inactive	20%	43 nM			CC1(C)CCC(c2ccc(Cl)cc2)=C(CN2CCN(c3ccc(C(=O)NS(=O)(=O)c4ccc(N[C@H](CCN5CCN(CCCCNc6cccc7c6C(=O)N([C@@H]6CCC(=O)NC6=O)C7=O)CC5)CSc5ccccc5)c(S(=O)(=O)C(F)(F)F)c4)cc3)CC2)C1
inactive	73%	147 nM			CN(CCCCCCNc1cccc2c1C(=O)N([C@@H]1CCC(=O)NC1=O)C2=O)CC[C@H](CSc1ccccc1)Nc1ccc(S(=O)(=O)NC(=O)c2ccc(N3CCN(CC4=C(c5ccc(Cl)cc5)CCC(C)(C)C4)CC3)cc2)cc1S(=O)(=O)C(F)(F)F
inactive	21%	211 nM			CC1(C)CCC(c2ccc(Cl)cc2)=C(CN2CCN(c3ccc(C(=O)NS(=O)(=O)c4ccc(N[C@H](CCN5CCN(C(=O)COCCOCCOCCNc6cccc7c6C(=O)N([C@@H]6CCC(=O)NC6=O)C7=O)CC5)CSc5ccccc5)c(S(=O)(=O)C(F)(F)F)c4)cc3)CC2)C1
inactive	30%				CC1(C)CCC(c2ccc(Cl)cc2)=C(CN2CCN(c3ccc(C(=O)NS(=O)(=O)c4ccc(N[C@H](CCN5CCN(CCCNc6cccc7c6C(=O)N([C@@H]6CCC(=O)NC6=O)C7=O)CC5)CSc5ccccc5)c(S(=O)(=O)C(F)(F)F)c4)cc3)CC2)C1 (mixture of isomers)
inactive	27%	118 nM			CC1(C)CCC(c2ccc(Cl)cc2)=C(CN2CCN(c3ccc(C(=O)NS(=O)(=O)c4ccc(N[C@H](CCN5CCN(C(=O)NCCOCCOCCNc6cccc7c6C(=O)N([C@@H]6CCC(=O)NC6=O)C7=O)CC5)CSc5ccccc5)c(S(=O)(=O)C(F)(F)F)c4)cc3)CC2)C1
inactive	40%	38.7 nM			CN(CCCCNc1cccc2c1C(=O)N([C@@H]1CCC(=O)NC1=O)C2=O)CC[C@H](CSc1ccccc1)Nc1ccc(S(=O)(=O)NC(=O)c2ccc(N3CCN(CC4=C(c5ccc(Cl)cc5)CCC(C)(C)C4)CC3)cc2)cc1S(=O)(=O)C(F)(F)F
inactive	24%				CN(CCCCCCCn1cc(COCCOCCOCCNc2cccc3c2C(=O)N([C@@H]2CCC(=O)NC2=O)C3=O)nn1)CC[C@H](CSc1ccccc1)Nc1ccc(S(=O)(=O)NC(=O)c2ccc(N3CCN(CC4=C(c5ccc(Cl)cc5)CCC(C)(C)C4)CC3)cc2)cc1S(=O)(=O)C(F)(F)F
inactive	63%	518 nM			CC1(C)CCC(c2ccc(Cl)cc2)=C(CN2CCN(c3ccc(C(=O)NS(=O)(=O)c4ccc(N[C@H](CCN5CCN(C(=O)CCCCCNc6cccc7c6C(=O)N([C@@H]6CCC(=O)NC6=O)C7=O)CC5)CSc5ccccc5)c(S(=O)(=O)C(F)(F)F)c4)cc3)CC2)C1

Reference: ChEMBL document CHEMBL4680217, “Discovery of PROTAC BCL-X degraders as potent anticancer agents with low on-target platelet toxicity” (Eur J Med Chem, 2020)
